From ChEMBL document CHEMBL4619706, “Synthesis, biological evaluation and molecular modeling study of [1,2,4]-Triazolo[4,3-c]quinazolines: New class of EGFR-TK inhibitors” (Bioorg Med Chem, 2020)

Experiments:
MCF7 [1] = assay: Induction of apoptosis in human MCF7 cells assessed as viable cells after 24 hrs by Annexin V-FITC/propidium iodide double staining based FACSCalibur flow cytometry analysis (reference value: 97.89 %); format: functional
MCF7 [2] = assay: Induction of apoptosis in human MCF7 cells assessed after 24 hrs by Annexin V-FITC/propidium iodide double staining based FACSCalibur flow cytometry analysis; format: functional, cell-based
MCF7 [3] = assay: Cell cycle arrest in human MCF7 cells assessed as accumulation of cells at G0/G1 phase at IC50 after 24 hrs by propidium iodide/RNase staining based FACSCalibur flow cytometry analysis (reference value: 57.28 %); format: functional
MCF7 [4] = assay: Induction of apoptosis in human MCF7 cells assessed as necrotic cells after 24 hrs by Annexin V-FITC/propidium iodide double staining based FACSCalibur flow cytometry analysis (reference value: 0.46 %); format: functional
MCF7 [5] = assay: Induction of apoptosis in human MCF7 cells assessed as early apoptotic cells after 24 hrs by Annexin V-FITC/propidium iodide double staining based FACSCalibur flow cytometry analysis (reference value: 1.22 %); format: functional
HeLa = assay: Anticancer activity against human HeLa cells assessed as inhibition of cell growth incubated for 24 hrs by MTT assay; format: functional, cell-based
MCF7 [6] = assay: Induction of apoptosis in human MCF7 cells assessed as cumulative apoptosis after 24 hrs by Annexin V-FITC/propidium iodide double staining based FACSCalibur flow cytometry analysis (reference value: 2.11 %); format: functional
MCF7 [7] = assay: Cell cycle arrest in human MCF7 cells assessed as accumulation of cells at pre-G1 phase at IC50 after 24 hrs by propidium iodide/RNase staining based FACSCalibur flow cytometry analysis (reference value: 2.11 %); format: functional
MCF7 [8] = assay: Cell cycle arrest in human MCF7 cells assessed as accumulation of cells at G2/M phase at IC50 after 24 hrs by propidium iodide/RNase staining based FACSCalibur flow cytometry analysis (reference value: 16.23 %); format: functional
[9] = biological target: Epidermal growth factor receptor (Homo sapiens, UniProt P00533); assay: Inhibition of human EGFR-TK using PTK substrate after 40 mins in presence of ATP by Kinase-Glo luminescent assay
HepG2 = assay: Anticancer activity against human HepG2 cells assessed as inhibition of cell growth incubated for 24 hrs by MTT assay; format: functional, cell-based; conditions: HepG2, 24 h
HCT-116 = assay: Anticancer activity against human HCT116 cells assessed as inhibition of cell growth incubated for 24 hrs by MTT assay; format: functional, cell-based; conditions: HCT-116, 24 h
MCF7 [10] = assay: Cell cycle arrest in human MCF7 cells assessed as accumulation of cells at S phase at IC50 after 24 hrs by propidium iodide/RNase staining based FACSCalibur flow cytometry analysis (reference value: 26.49 %); format: functional
PC-3 = assay: Anticancer activity against human PC3 cells assessed as inhibition of cell growth incubated for 24 hrs by MTT assay; format: functional, cell-based; conditions: PC-3, 24 h
MCF7 [11] = assay: Induction of apoptosis in human MCF7 cells assessed as late apoptotic cells after 24 hrs by Annexin V-FITC/propidium iodide double staining based FACSCalibur flow cytometry analysis (reference value: 0.43 %); format: functional
MCF7 [12] = assay: Anticancer activity against human MCF7 cells assessed as inhibition of cell growth incubated for 24 hrs by MTT assay; format: functional, cell-based; conditions: MCF7, 24 h

Chain of Epidermal growth factor receptor (P00533 whole entry): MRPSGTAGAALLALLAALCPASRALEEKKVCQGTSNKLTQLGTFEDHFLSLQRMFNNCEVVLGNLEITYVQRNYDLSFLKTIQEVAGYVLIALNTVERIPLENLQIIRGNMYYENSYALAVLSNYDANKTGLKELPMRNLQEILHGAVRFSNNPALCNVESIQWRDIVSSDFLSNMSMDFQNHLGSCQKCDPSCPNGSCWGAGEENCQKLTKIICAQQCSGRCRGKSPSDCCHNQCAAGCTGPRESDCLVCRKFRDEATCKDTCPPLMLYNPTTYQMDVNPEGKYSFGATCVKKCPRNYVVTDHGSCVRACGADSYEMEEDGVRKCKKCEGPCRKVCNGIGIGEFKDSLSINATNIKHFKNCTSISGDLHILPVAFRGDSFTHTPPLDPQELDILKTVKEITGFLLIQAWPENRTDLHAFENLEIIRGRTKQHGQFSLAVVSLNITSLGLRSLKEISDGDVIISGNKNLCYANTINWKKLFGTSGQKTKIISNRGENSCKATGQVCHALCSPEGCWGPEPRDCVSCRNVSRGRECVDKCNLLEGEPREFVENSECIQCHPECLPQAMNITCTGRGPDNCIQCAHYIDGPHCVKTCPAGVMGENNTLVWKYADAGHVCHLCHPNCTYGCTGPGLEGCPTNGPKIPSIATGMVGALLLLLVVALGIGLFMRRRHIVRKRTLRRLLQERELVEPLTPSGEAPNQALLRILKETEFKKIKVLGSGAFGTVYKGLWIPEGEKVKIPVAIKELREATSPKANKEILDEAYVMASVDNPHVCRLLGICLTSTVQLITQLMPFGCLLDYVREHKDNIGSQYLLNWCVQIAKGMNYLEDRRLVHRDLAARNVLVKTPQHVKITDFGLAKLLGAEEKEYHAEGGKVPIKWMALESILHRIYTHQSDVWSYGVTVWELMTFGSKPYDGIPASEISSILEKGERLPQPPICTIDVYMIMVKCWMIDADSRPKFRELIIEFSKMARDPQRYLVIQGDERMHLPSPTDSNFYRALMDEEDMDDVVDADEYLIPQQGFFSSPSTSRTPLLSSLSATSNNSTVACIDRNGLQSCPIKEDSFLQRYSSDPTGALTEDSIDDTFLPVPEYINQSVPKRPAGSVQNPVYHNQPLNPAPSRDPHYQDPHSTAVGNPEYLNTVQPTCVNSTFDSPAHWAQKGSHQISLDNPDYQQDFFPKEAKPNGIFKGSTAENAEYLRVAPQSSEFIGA

IC50 (HeLa) [µM]	IC50 [9] [µM]	IC50 (HepG2) [µM]	IC50 (HCT-116) [µM]	IC50 (PC-3) [µM]	IC50 (MCF7 [12]) [µM]	Compound	Activity (MCF7 [1]) [%]	Activity (MCF7 [2])	Activity (MCF7 [3]) [%]	Activity (MCF7 [4]) [%]	Activity (MCF7 [5]) [%]	Activity (MCF7 [6]) [%]	Activity (MCF7 [7]) [%]	Activity (MCF7 [8]) [%]	Activity (MCF7 [10]) [%]	Activity (MCF7 [11]) [%]
18.9	0.74	15	14.8	21.7	9.73	Clc1nc2ccccc2c2nnc(/N=C/c3ccco3)n12	91.44	Dose-dependent effect	46.72	1.42	2.92	8.56	8.56	23.09	30.19	4.22
–	–	–	–	–	–	COc1cccc2c1C(=O)c1c(O)c3c(c(O)c1C2=O)C[C@@](O)(C(=O)CO)C[C@@H]3O[C@H]1C[C@H](N)[C@H](O)[C@H](C)O1 [DOXORUBICIN]	67.84	–	32.16	3.07	9.28	32.16	32.16	48.57	22.91	19.81
44.3	–	46.2	39.6	41.6	38.5	c1ccc2c(c1)nc(Oc1ccc(NCCCN3CCOCC3)cc1)n1cnnc21	–	–	–	–	–	–	–	–	–	–
23.4	–	24.2	32.5	51.5	30.5	c1ccc(N2CCN(CCCNc3ccc(Oc4nc5ccccc5c5nncn45)cc3)CC2)cc1	–	–	–	–	–	–	–	–	–	–
34.7	–	19.3	22.5	27.5	17.1	Clc1nc2ccccc2c2nnc(/N=C/c3ccccc3)n12	–	–	–	–	–	–	–	–	–	–
29.4	–	49.2	31	33.5	37.2	COc1ccc(/C=N/c2nnc3c4ccccc4nc(Cl)n23)cc1O	–	–	–	–	–	–	–	–	–	–
31.4	–	44.1	34.6	35.7	40.4	O=[N+]([O-])c1cccc(/C=N/c2nnc3c4ccccc4nc(Nc4ccccc4)n23)c1	–	–	–	–	–	–	–	–	–	–
25.7	–	26.2	27.6	26.7	20.5	Nc1ccc(Oc2nc3ccccc3c3nncn23)cc1	–	–	–	–	–	–	–	–	–	–
46.4	–	32.4	44.2	29.9	30.2	O=C(Nc1nnc2c3ccccc3nc(Sc3ccc(Br)cc3)n12)c1ccccc1	–	–	–	–	–	–	–	–	–	–
9.47	1.8	15.3	13.5	10.6	8.58	N#CC1=C(N)N(c2nnc3c4ccccc4nc(Sc4ccc(Br)cc4)n23)C(=O)C1	80.59	Dose-dependent effect	41.33	1.89	7.26	19.41	19.41	33.21	25.46	10.26
15.4	3.91	11.6	15.2	10.7	12.5	CCN1CCN(CC(=O)Nc2nnc3c4ccccc4nc(Sc4ccc(Br)cc4)n23)CC1	–	–	–	–	–	–	–	–	–	–
73.4	–	55.5	49.2	60.2	48.2	O=[N+]([O-])c1cccc(/C=N/c2nnc3c4ccccc4nc(Cl)n23)c1	–	–	–	–	–	–	–	–	–	–
13.4	0.69	10.3	11.5	10.5	8.9	Nc1nc(Nc2nnc3c4ccccc4nc(Sc4ccc(Br)cc4)n23)cs1	72.85	Dose-dependent effect	35.76	2.27	7.58	27.15	27.15	41.43	22.81	17.3
14.3	9.51	11.5	13.8	10.6	12.9	CCN1CCN(CCCNc2ccc(Oc3nc4ccccc4c4nncn34)cc2)CC1	–	–	–	–	–	–	–	–	–	–
9.16	7.56	11.6	12.9	16.4	8.34	Clc1nc2ccccc2c2nnc(/N=C/C=C/c3ccccc3)n12	–	–	–	–	–	–	–	–	–	–
12.5	–	16.5	17.2	14.3	15.3	CN1CCN(CCCNc2ccc(Oc3nc4ccccc4c4nncn34)cc2)CC1	–	–	–	–	–	–	–	–	–	–
26.5	–	24.2	20.4	30.5	18.2	Cc1cccc(Nc2nc3ccccc3c3nnc(/N=C/c4ccc(F)cc4)n23)c1	–	–	–	–	–	–	–	–	–	–
47.1	–	50.3	–	61.5	55.6	O=C(CN1CCOCC1)Nc1nnc2c3ccccc3nc(Sc3ccc(Br)cc3)n12	–	–	–	–	–	–	–	–	–	–
22.3	–	19.2	24.8	12.6	20.3	C(=N\c1nnc2c3ccccc3nc(Nc3ccccc3)n12)/c1ccccc1	–	–	–	–	–	–	–	–	–	–
30.4	–	29.9	37.5	37.1	34.4	O=C(CCl)Nc1nnc2c3ccccc3nc(Sc3ccc(Br)cc3)n12	–	–	–	–	–	–	–	–	–	–
29.2	–	31.2	18.5	38.5	25.9	Fc1ccc(/C=N/c2nnc3c4ccccc4nc(Cl)n23)cc1	–	–	–	–	–	–	–	–	–	–
35.1	–	27.2	44.9	41.7	24.4	CN1CCN(CC(=O)Nc2nnc3c4ccccc4nc(Sc4ccc(Br)cc4)n23)CC1	–	–	–	–	–	–	–	–	–	–
16.2	–	18.2	20.4	16.8	19.8	O=C(Nc1nnc2c3ccccc3nc(Sc3ccc(Br)cc3)n12)c1ccc(Cl)c([N+](=O)[O-])c1	–	–	–	–	–	–	–	–	–	–
11.8	4.1	8.43	12	10.7	9.48	O=C1CSCC(=O)N1c1nnc2c3ccccc3nc(Sc3ccc(Br)cc3)n12	–	–	–	–	–	–	–	–	–	–
45.2	–	44.9	63.5	59.5	57.3	Nc1nnc2c3ccccc3nc(Sc3ccc(Br)cc3)n12	–	–	–	–	–	–	–	–	–	–
36.1	–	13.7	11.6	25.2	32.7	Nc1cc([N+](=O)[O-])ccc1Nc1nc2ccccc2c2nnc(/N=C/C=C/c3ccccc3)n12	–	–	–	–	–	–	–	–	–	–
10.1	4.28	9.8	8.27	17.7	12.3	COc1ccc(/C=N/c2nnc3c4ccccc4nc(Nc4ccc(C)cc4N)n23)cc1O	–	–	–	–	–	–	–	–	–	–
15.5	–	20.8	24.4	43.9	19.7	C(=N\c1nnc2c3ccccc3nc(Nc3ccccc3)n12)/c1ccco1	–	–	–	–	–	–	–	–	–	–
